Laboratory results: patent US20170045494A1, “SYSTEMS AND METHODS FOR IDENTIFYING COAGULOPATHIES” (T2 Biosystems, Inc., priority 2014, published 2017)

Tests used:
Type in all cases: cell-based, human
[1] = test system: re-calcified citrated blood clotted with thrombin; test: T2MR monitoring of fibrinolysis of thrombin-clotted blood; conditions: tPA added 30 minutes after 3 U/ml thrombin
Experimental: Blood clotting was initiated by addition of 2 μL of a 0.2 M CaCl2 solution and 2 μL of thrombin (Sigma-Aldrich, St. Louis, Mo., final concentration 0.1-3.0 U/ml) to 34 μL of blood in a 200 μL PCR tube (Eppendorf, Hauppauge, N.Y.). All components were pre-warmed for 1 min at 37° C. before mixing. Samples were mixed by three aspiration and dispersion cycles using a pipette, then put into the T2MR reader for measurement. Typical run length was 30 min with a 10 s sampling rate. For some experiments, data collection time was extended to 1 hr.
To establish T2MR signatures for fibrinolysis, tissue plasminogen activator (tPA, Alteplase, Genentech, South San Francisco, Calif.) was added to samples clotted by thrombin. Blood clotting was initiated as described above, and the sample was incubated for […] to allow for complete clot contraction. Then, 0.5-1 μM tPA was added to clotted and contracted samples. Care was taken not to disturb clots, which were usually attached to the tube wall. The pipette tip was carefully placed into the visible serum layer on the tube side opposite to the contracted clot, and 3 μL of tPA solution was added with a single dispensing of the pipettor. The tPA solutions were made from a stock solution prepared according to manufacturer instructions using 0.15 M sodium chloride, pH 7.4.
We measured the dependencies of the T2MR signals during clotting of re-calcified citrated blood samples from healthy donors initiated by adding 3 U/ml thrombin. Thrombin activates platelets and cleaves fibrinogen to form a three-dimensional fibrin network stabilized by factor XIIIa. Addition of thrombin led to rapid formation of a gelatinous meshwork that filled the sample volume accompanied by a small, rapid decrease in the T2MR signal over tens of seconds due to the sample transitioning from a liquid to gel state. […]
We then assessed the sensitivity of the T2MR platform to fibrinolysis by adding tissue-type plasminogen activator (tPA) to the clotted samples 30 minutes after thrombin.

citrated blood [2] = test: T2MR clot strength (ΔT2) after calcium and kaolin activation; conditions: ex vivo addition at 4 or 8 μg/ml; 13 minutes after activation; samples from 3 healthy donors
Experimental: (§1) A 0.5 mg/ml solution of abciximab was prepared by diluting the stock 10 mg/5 ml solution by […] in saline. The abciximab-treated blood samples were incubated for at least 5 min prior to clotting. Clotting was initiated by adding 2 μL 0.2 M CaCl2 and 2 μL TEG kaolin to 34 μL of abciximab-treated blood sample. To compare the T2MR signal to TEG MA, a ΔT2 parameter was calculated by taking the difference in T2 between the upper and middle peaks at a time point 13 min after adding calcium and kaolin. The TEG MA values were measured on the same samples following manufacturer instructions.
(§2) For comparison between T2MR and TEG, calcium kaolin activation of citrated blood was used and normal donor samples were treated with various amounts of abciximab, an inhibitor of the platelet glycoprotein allbβ3 receptor that binds fibrin and is essential for clot contraction.

citrated blood [3] = test: Thromboelastography maximum amplitude (TEG MA) after calcium and kaolin activation; conditions: ex vivo addition at 4 or 8 μg/ml; samples from 3 healthy donors
Experimental: as §1, §2

| Molecule | T2 value of the middle peak after tPA addition [1] | T2 value of the third peak after tPA addition (persisted) [1] [ms] | T2 value of the upper peak after tPA addition [1] | ΔT2 (difference between upper and middle T2 values in the T2MR signature) (citrated blood [2]) [ms] | TEG MA (citrated blood [3]) |
| --- | --- | --- | --- | --- | --- |
| Alteplase [tPA] | decreased from 250 to 175 | ~100 | decreased rapidly |  |  |
| abciximab (antibody, chains of the INN, looked up, V domains shown, Fab) VH: EVQLQQSGTVLARPGASVKMSCEASGYTFTNYWMHWVKQRPGQGLEWIGAIYPGNSDTSYIQKFKGKAKLTAVTSTTSVYMELSSLTNEDSAVYYCTLYDGYYVFAYWGQGTLVTVSA VL: EIVLTQSPVTLSVTPGDSVSLSCRASRDISNNLHWFQQTSHESPRLLIKYASQSMSGIPSRFSGSGSGTDFTLSINSVETEDFGMYFCQQTNSWPYTFGGGTKLEIK |  |  |  | < 100 | less than 40 |
